In PubChem BioAssay AID270 (DTP/NCI, 2004):
Values joined by “and” are separate entries in the source; they are usually repeats but may differ in a detail not shown here. Equal values may be shown once. Records with an inconclusive call do not appear.

System: BDF1 mice, s.c. Lewis lung carcinoma, T/C %
Experiment: NCI In Vivo Anticancer Drug Screen. Data for tumor model Lewis Lung Carcinoma (subcutaneous) in B6D2F1 (BDF1) mice
Method in brief: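 Antitumor effect in vivo is scored from survival or tumor burden, reported as treated relative to vehicle controls.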

[1] = endpoint: median survival time, dose: 1.25 mg/kg/injection, schedule: Q01DX009 (ip), vehicle: saline with Tween-80, higher = longer survival
[2] = endpoint: median survival time, dose: 2.5 mg/kg/injection, schedule: Q01DX009 (ip), vehicle: saline with Tween-80, higher = longer survival

CC1OC(=O)C(C(C)C)NC(=O)C(C(C)C)OC(=O)C(C(C)C)NC(=O)C(C)OC(=O)C(C(C)C)NC(=O)C(C(C)C)OC(=O)C(C(C)C)NC(=O)C(C)OC(=O)C(C(C)C)NC(=O)C(C(C)C)OC(=O)C(C(C)C)NC1=O (stereo unspecified)
T/C (endpoint: median survival time, dose: 0.31 mg/kg/injection, schedule: Q01DX009 (ip), vehicle: saline with Tween-80, higher = longer survival): 100 % of control
T/C (endpoint: median survival time, dose: 0.62 mg/kg/injection, schedule: Q01DX009 (ip), vehicle: saline with Tween-80, higher = longer survival): 103 % of control
T/C (endpoint: median survival time, dose: 0.75 mg/kg/injection, schedule: Q01DX009 (ip), vehicle: Klucel (hydroxypropylcellulose) (HPC), higher = longer survival): 94 % of control
T/C [1]: 109 % of control
T/C (endpoint: median survival time, dose: 1.5 mg/kg/injection, schedule: Q01DX009 (ip), vehicle: Klucel (hydroxypropylcellulose) (HPC), higher = longer survival): 86 % of control
T/C [2]: 86 % of control
T/C (endpoint: median survival time, dose: 3.0 mg/kg/injection, schedule: Q01DX009 (ip), vehicle: Klucel (hydroxypropylcellulose) (HPC), higher = longer survival): 101 % of control
T/C (endpoint: median survival time, dose: 6.0 mg/kg/injection, schedule: Q01DX009 (ip), vehicle: Klucel (hydroxypropylcellulose) (HPC), higher = longer survival): 100 % of control
T/C (endpoint: median survival time, dose: 8.0 mg/kg/injection, schedule: Q01DX009 (ip), vehicle: saline with Tween-80, higher = longer survival): 114 % of control
T/C (endpoint: median survival time, dose: 12.0 mg/kg/injection, schedule: Q01DX009 (ip), vehicle: saline with Tween-80, higher = longer survival): 112 % of control
T/C (endpoint: median survival time, dose: 15.0 mg/kg/injection, schedule: Q04DX003 (ip), vehicle: saline with Tween-80, higher = longer survival): 106 % of control
T/C (endpoint: median survival time, dose: 20.0 mg/kg/injection, schedule: Q01DX001 (ip), vehicle: saline with Tween-80, higher = longer survival): 123 % of control
T/C (endpoint: median survival time, dose: 20.0 mg/kg/injection, schedule: Q04DX003 (ip), vehicle: saline with Tween-80, higher = longer survival): 112 % of control
T/C (endpoint: median survival time, dose: 30.0 mg/kg/injection, schedule: Q01DX001 (ip), vehicle: saline with Tween-80, higher = longer survival): 112 % of control
T/C (endpoint: median survival time, dose: 30.0 mg/kg/injection, schedule: Q04DX003 (ip), vehicle: saline with Tween-80, higher = longer survival): 115 % of control
T/C (endpoint: median survival time, dose: 45.0 mg/kg/injection, schedule: Q01DX001 (ip), vehicle: saline with Tween-80, higher = longer survival): 119 % of control

CCCCCCCCCCCCCCCCCC(=O)NN
T/C (endpoint: median survival time, dose: 200.0 mg/kg/injection, schedule: Q01DX009 (ip), vehicle: Klucel (hydroxypropylcellulose) (HPC), higher = longer survival): 120 % of control

C1=Cc2ccccc2CC1
T/C (endpoint: mean tumor weight, dose: 133.0 mg/kg/injection, schedule: Q01DX011 (ip), vehicle: other, higher = larger tumour): 121 % of control
T/C (endpoint: mean tumor weight, dose: 200.0 mg/kg/injection, schedule: Q01DX011 (ip), vehicle: other, higher = larger tumour): 46 % of control
T/C (endpoint: mean tumor weight, dose: 300.0 mg/kg/injection, schedule: Q01DX011 (ip), vehicle: other, higher = larger tumour): 45 % of control

CCn1c2ccccc2c2cc(NC(=O)N(CCCl)N=O)ccc21
T/C (endpoint: median survival time, dose: 50.0 mg/kg/injection, schedule: Q01DX001 (ip), vehicle: saline with Tween-80, higher = longer survival): 89 % of control
T/C (endpoint: median survival time, dose: 100.0 mg/kg/injection, schedule: Q01DX001 (ip), vehicle: saline with Tween-80, higher = longer survival): 96 % of control

C/C=C(\C)c1cc(=O)c2c(C)cc3c(c2o1)C(=O)c1c(O)c(C2CC(C)(N(C)C)C(O)C(C)O2)cc(C2CC(N(C)C)C(O)C(C)O2)c1C3=O (stereo unspecified)
T/C (endpoint: median survival time, dose: 0.5 mg/kg/injection, schedule: Q01DX009 (ip), vehicle: Klucel (hydroxypropylcellulose) (HPC), higher = longer survival): 100 % of control
T/C (endpoint: median survival time, dose: 2.0 mg/kg/injection, schedule: Q01DX009 (ip), vehicle: Klucel (hydroxypropylcellulose) (HPC), higher = longer survival): 96 % of control

O=c1[nH]cnc2nc[nH]c12
T/C (endpoint: mean tumor weight, dose: 62.5 mg/kg/injection, schedule: Q01DX011 (ip), vehicle: saline, higher = larger tumour): 121 % of control
T/C (endpoint: mean tumor weight, dose: 125.0 mg/kg/injection, schedule: Q01DX011 (ip), vehicle: saline, higher = larger tumour): 108 % of control
T/C (endpoint: mean tumor weight, dose: 250.0 mg/kg/injection, schedule: Q01DX011 (ip), vehicle: saline, higher = larger tumour): 107 % of control
T/C (endpoint: mean tumor weight, dose: 500.0 mg/kg/injection, schedule: Q01DX011 (ip), vehicle: saline, higher = larger tumour): 76 % of control

C=C1C(=O)O[C@@H]2[C@H](O)[C@@H](C)[C@@H]3C=CC(=O)[C@@]3(C)[C@H](OC(=O)C=C(C)C)[C@H]12
T/C (endpoint: median survival time, dose: 0.63 mg/kg/injection, schedule: Q01DX009 (ip), vehicle: saline with Tween-80, higher = longer survival): 95 % of control
T/C [1]: 92 % of control
T/C [2]: 99 % of control
T/C (endpoint: median survival time, dose: 5.0 mg/kg/injection, schedule: Q01DX009 (ip), vehicle: saline with Tween-80, higher = longer survival): 95 % of control
T/C (endpoint: median survival time, dose: 10.0 mg/kg/injection, schedule: Q01DX009 (ip), vehicle: Klucel (hydroxypropylcellulose) (HPC), higher = longer survival): 118 % of control
T/C (endpoint: median survival time, dose: 10.0 mg/kg/injection, schedule: Q01DX009 (ip), vehicle: saline with Tween-80, higher = longer survival): 92 % of control

CC(=O)NC1=C(N2CC2)C(=O)C(NC(C)=O)=C(N2CC2)C1=O
T/C (endpoint: median survival time, dose: 0.12 mg/kg/injection, schedule: Q01DX009 (ip), vehicle: saline with Tween-80, higher = longer survival): 105 % of control and 111 % of control
T/C (endpoint: median survival time, dose: 0.25 mg/kg/injection, schedule: Q01DX005 (ip), vehicle: saline with Tween-80, higher = longer survival): 102 % of control and 119 % of control
T/C (endpoint: median survival time, dose: 0.25 mg/kg/injection, schedule: Q01DX009 (ip), vehicle: saline with Tween-80, higher = longer survival): 102 % of control and 112 % of control
T/C (endpoint: median survival time, dose: 0.5 mg/kg/injection, schedule: Q01DX005 (ip), vehicle: saline with Tween-80, higher = longer survival): 98 % of control and 109 % of control
T/C (endpoint: median survival time, dose: 0.5 mg/kg/injection, schedule: Q01DX009 (ip), vehicle: saline with Tween-80, higher = longer survival): 87 % of control and 105 % of control
T/C (endpoint: median survival time, dose: 1.0 mg/kg/injection, schedule: Q01DX005 (ip), vehicle: saline with Tween-80, higher = longer survival): 115 % of control
T/C (endpoint: median survival time, dose: 1.0 mg/kg/injection, schedule: Q01DX009 (ip), vehicle: saline with Tween-80, higher = longer survival): 123 % of control
T/C (endpoint: median survival time, dose: 2.0 mg/kg/injection, schedule: Q01DX005 (ip), vehicle: saline with Tween-80, higher = longer survival): 94 % of control

CCC(C)n1ncc2c(N(C)C)ncnc21 (stereo unspecified)
T/C (endpoint: mean tumor weight, dose: 32.5 mg/kg/injection, schedule: Q01DX011 (ip), vehicle: carboxymethylcellulose (CMC), higher = larger tumour): 76 % of control

O=c1[nH]cc(N(CCCl)CCCl)c(=O)[nH]1
T/C (endpoint: mean tumor weight, dose: 0.37 mg/kg/injection, schedule: Q01DX011 (ip), vehicle: carboxymethylcellulose (CMC), higher = larger tumour): 70 % of control
T/C (endpoint: mean tumor weight, dose: 0.57 mg/kg/injection, schedule: Q01DX011 (ip), vehicle: carboxymethylcellulose (CMC), higher = larger tumour): 59 % of control
T/C (endpoint: mean tumor weight, dose: 0.85 mg/kg/injection, schedule: Q01DX011 (ip), vehicle: carboxymethylcellulose (CMC), higher = larger tumour): 38 % of control
